Assay results from ChEMBL document CHEMBL1139006, “Synthesis and in vitro antibiotic activity of 16-membered 9-O-arylalkyloxime macrolides” (2006).
≈ marks a conversion by molar mass, not a printed value.

Legend:
Type in all cases: functional
Streptococcus pneumoniae [1] = experiment: Antibacterial activity against macrolide resistant Streptococcus pneumoniae ATCC 700676
Streptococcus pneumoniae [2] = experiment: Antibacterial activity against macrolide resistant Streptococcus pneumoniae ATCC 700905
[3] = tested on: Staphylococcus epidermidis; experiment: Antibacterial activity against Staphylococcus epidermidis ATCC 12228
Staphylococcus aureus [4] = experiment: Antibacterial activity against Staphylococcus aureus ATCC 6538p
Enterococcus faecalis = experiment: Antibacterial activity against Enterococcus faecalis ATCC 51575
Streptococcus pneumoniae [5] = experiment: Antibacterial activity against Streptococcus pneumoniae ATCC 6301
Staphylococcus aureus [6] = experiment: Antibacterial activity against macrolide resistant Staphylococcus aureus ATCC 141541
Streptococcus pneumoniae [7] = experiment: Antibacterial activity against macrolide resistant Streptococcus pneumoniae ATCC 700906
Streptococcus pneumoniae [8] = experiment: Antibacterial activity against Streptococcus pneumoniae ATCC 49619
Staphylococcus aureus [9] = experiment: Antibacterial activity against Staphylococcus aureus ATCC 29213
Staphylococcus aureus [10] = experiment: Antibacterial activity against macrolide resistant Staphylococcus aureus ATCC BAA-39
Streptococcus pneumoniae [11] = experiment: Antibacterial activity against Streptococcus pneumoniae ATCC 700671
Streptococcus pneumoniae [12] = experiment: Antibacterial activity against macrolide resistant Streptococcus pneumoniae ATCC 700677
Staphylococcus aureus [13] = experiment: Antibacterial activity against macrolide resistant Staphylococcus aureus ATCC BAA-44
Staphylococcus aureus [14] = experiment: Antibacterial activity against macrolide resistant Staphylococcus aureus ATCC 33591
Haemophilus influenzae [15] = experiment: Antibacterial activity against Haemophilus influenzae ATCC 9006
Haemophilus influenzae [16] = experiment: Antibacterial activity against Haemophilus influenzae ATCC 49766
Haemophilus influenzae [17] = experiment: Antibacterial activity against Haemophilus influenzae EH003
Haemophilus influenzae [18] = experiment: Antibacterial activity against Haemophilus influenzae EH002
Haemophilus influenzae [19] = experiment: Antibacterial activity against Haemophilus influenzae EH001

Row | Compound | MIC (Streptococcus pneumoniae [1]) [µg/mL] | MIC (Streptococcus pneumoniae [2]) [µg/mL] | MIC [3] [µg/mL] | MIC (Staphylococcus aureus [4]) [µg/mL] | MIC (Enterococcus faecalis) [µg/mL] | MIC (Streptococcus pneumoniae [5]) [µg/mL] | MIC (Staphylococcus aureus [6]) [µg/mL] | MIC (Streptococcus pneumoniae [7]) [µg/mL] | MIC (Streptococcus pneumoniae [8]) [µg/mL] | MIC (Staphylococcus aureus [9]) [µg/mL] | MIC (Staphylococcus aureus [10]) [µg/mL] | MIC (Streptococcus pneumoniae [11]) [µg/mL] | MIC (Streptococcus pneumoniae [12]) [µg/mL] | MIC (Staphylococcus aureus [13]) [µg/mL] | MIC (Staphylococcus aureus [14]) [µg/mL] | MIC (Haemophilus influenzae [15]) [µg/mL] | MIC (Haemophilus influenzae [16]) [µg/mL] | MIC (Haemophilus influenzae [17]) [µg/mL] | MIC (Haemophilus influenzae [18]) [µg/mL] | MIC (Haemophilus influenzae [19]) [µg/mL]
1 | CC[C@H]1OC(=O)C[C@@H](O)[C@H](C)[C@@H](O[C@@H]2O[C@H](C)[C@@H](O)[C@H](N(C)C)[C@H]2O)[C@@H](CC=O)C[C@@H](C)C(=N/OCc2ccccc2)/C=C/C(C)=C/C1CO (stereo partly specified) | 0.025 (≈ 0.0356 µM) | 0.2 (≈ 0.285 µM) | 0.78 (≈ 1.11 µM) | 0.39 (≈ 0.555 µM) | > 12.5 | 0.025 (≈ 0.0356 µM) | 1.56 (≈ 2.22 µM) | > 12.5 | 0.2 (≈ 0.285 µM) | 1.56 (≈ 2.22 µM) | > 12.5 | 0.2 (≈ 0.285 µM) | 1.56 (≈ 2.22 µM) | > 12.5 | > 12.5 |  |  |  |  | 
2 | CC[C@H]1OC(=O)C[C@@H](O)[C@H](C)[C@@H](O[C@@H]2O[C@H](C)[C@@H](O)[C@H](N(C)C)[C@@H]2O)[C@@H](CCN2CC(C)CC(C)C2)C[C@@H](C)C(=N\OCCCc2ccc3ncccc3c2)/C=C/C(C)=C/C1CO (stereo partly specified) | 12.5 (≈ 14.2 µM) | 12.5 (≈ 14.2 µM) | > 12.5 | > 12.5 | > 12.5 | 6.25 (≈ 7.11 µM) | > 12.5 | > 12.5 | 6.25 (≈ 7.11 µM) | > 12.5 | > 12.5 | 6.25 (≈ 7.11 µM) | > 12.5 | > 12.5 | > 12.5 |  |  |  |  | 
3 | CC[C@H]1OC(=O)C[C@@H](O)[C@H](C)[C@@H](O[C@@H]2O[C@H](C)[C@@H](O)[C@H](N(C)C)[C@@H]2O)[C@@H](CCN2CC(C)CC(C)C2)C[C@@H](C)C(=N/O)/C=C/C(C)=C/C1CO (stereo partly specified) | 6.25 (≈ 8.8 µM) | 6.25 (≈ 8.8 µM) | > 12.5 | 3.12 (≈ 4.39 µM) | > 12.5 | 0.78 (≈ 1.1 µM) | > 12.5 | > 12.5 | 1.56 (≈ 2.2 µM) | 12.5 (≈ 17.6 µM) | > 12.5 | 1.56 (≈ 2.2 µM) | > 12.5 | > 12.5 | > 12.5 |  |  |  |  | 
4 | CC[C@H]1OC(=O)C[C@@H](O)[C@H](C)[C@@H](O[C@@H]2O[C@H](C)[C@@H](O)[C@H](N(C)C)[C@H]2O)[C@@H](CC=O)C[C@@H](C)C(=N/OCCCCc2cnc3ccccc3c2)/C=C/C(C)=C/C1CO (stereo partly specified) | 0.025 (≈ 0.0314 µM) | 0.025 (≈ 0.0314 µM) | 0.2 (≈ 0.251 µM) | 0.025 (≈ 0.0314 µM) | > 12.5 | 0.025 (≈ 0.0314 µM) | 0.2 (≈ 0.251 µM) | > 12.5 | 0.049 (≈ 0.0616 µM) | 0.2 (≈ 0.251 µM) | > 12.5 | 0.025 (≈ 0.0314 µM) | 0.025 (≈ 0.0314 µM) | > 12.5 | > 12.5 | 6.25 (≈ 7.85 µM) | 6.25 (≈ 7.85 µM) |  |  | 
5 | CC[C@H]1OC(=O)C[C@@H](O)[C@H](C)[C@@H](O[C@@H]2O[C@H](C)[C@@H](O)[C@H](N(C)C)[C@H]2O)[C@@H](CCN2CC(C)CC(C)C2)C[C@@H](C)C(=N/OCCCc2ccc3ncccc3c2)/C=C/C(C)=C/C1CO (stereo partly specified) | 0.025 (≈ 0.0284 µM) | 0.025 (≈ 0.0284 µM) |  |  |  | 0.025 (≈ 0.0284 µM) |  | > 12.5 | 0.025 (≈ 0.0284 µM) |  |  | 0.049 (≈ 0.0557 µM) | > 12.5 |  |  | 1.56 (≈ 1.77 µM) | 3.12 (≈ 3.55 µM) | 1.56 (≈ 1.77 µM) | 3.12 (≈ 3.55 µM) | 3.12 (≈ 3.55 µM)
6 | CC[C@H]1OC(=O)C[C@@H](O)[C@H](C)[C@@H](O[C@@H]2O[C@H](C)[C@@H](O)[C@H](N(C)C)[C@H]2O)[C@@H](CC=O)C[C@@H](C)C(=N/OCCCCOc2ccc3ncccc3c2)/C=C/C(C)=C/C1CO (stereo partly specified) | 0.025 (≈ 0.0308 µM) | 0.025 (≈ 0.0308 µM) | 0.2 (≈ 0.246 µM) | 0.2 (≈ 0.246 µM) | > 12.5 | 0.025 (≈ 0.0308 µM) | 0.78 (≈ 0.961 µM) | > 12.5 | 0.01 (≈ 0.0123 µM) | 0.78 (≈ 0.961 µM) | > 12.5 | 0.025 (≈ 0.0308 µM) | 0.39 (≈ 0.48 µM) | > 12.5 | > 12.5 |  |  |  |  | 
7 | CC[C@H]1OC(=O)[C@H](C)C(=O)[C@H](C)[C@@H](O[C@@H]2O[C@H](C)C[C@H](N(C)C)[C@H]2O)[C@](C)(OC)C[C@@H](C)C(=O)[C@H](C)[C@H]2N(CCCCn3cnc(-c4cccnc4)c3)C(=O)O[C@]12C [TELITHROMYCIN] | 0.098 (≈ 0.121 µM) | 0.025 (≈ 0.0308 µM) |  |  |  | 0.025 (≈ 0.0308 µM) |  | 0.2 (≈ 0.246 µM) | 0.049 (≈ 0.0603 µM) |  |  | 0.025 (≈ 0.0308 µM) | 0.025 (≈ 0.0308 µM) |  |  | 1.56 (≈ 1.92 µM) | 3.12 (≈ 3.84 µM) | 1.56 (≈ 1.92 µM) | 6.25 (≈ 7.7 µM) | 1.56 (≈ 1.92 µM)
